Test results reported in paper PMC10892984, “Novel Antineoplastic Inducers of Mitochondrial Apoptosis in Human Cancer Cells” (Molecules, 2024).

How the values were obtained:
[1] = test system: IGROV1
[2] = test system: 786-0
[3] = test system: A549
[4] = test system: 60 human cancer cell lines
From the text: The defined tumor inhibition criterion (GI50, TGI, or LC50) is recalculated in log10 expression, and the colored bars, which indicate then the sensitivity of the individual tumor cell line to the agent, are given in log10 units. […] The most important feature is at the bottom of the page: the MID (Mean of Inhibition Data) indicates the mean concentration for all tested cell lines required for the drug to reach the defined tumor inhibition criterion (GI50, TGI, or LC50). It is given in Log10GI50, Log10TGI, and Log10LC50. From those values, the corresponding MID is calculated. […] The MID can be transformed from logarithmic into linear concentrations by the formula: c = 10^MID.
The human tumor cell lines of the cancer screening panel are grown in RPMI-1640 medium containing 5% fetal bovine serum (FBS) and 2 mM L-glutamine. For a typical screening experiment, cells are inoculated into 96-well microtiter plates in 100 μL at plating densities ranging from 5000 to 40,000 cells/well, depending on the doubling time of individual cell lines. After cell inoculation, the microtiter plates are incubated at 37 °C, 5% CO2, 95% air, and 100% relative humidity for 24 h prior to the addition of experimental drugs. After 24 h, two plates of each cell line are fixed in situ with trichloroacetic acid (TCA) to represent a measurement of the cell population for each cell line at the time of drug addition (Tz). Experimental drugs are solubilized in dimethyl sulfoxide (DMSO) at 400-fold the desired final maximum test concentration and stored frozen prior to use. At the time of drug addition, an aliquot of frozen concentrate is thawed and diluted to twice the desired final maximum test concentration with a complete medium containing 50 μg/mL gentamicin. Additional four, 10-fold or ½ log serial dilutions are made to provide a total of five drug concentrations plus control. Aliquots of 100 μL of these different drug dilutions are added to the appropriate microtiter wells already containing 100 μL of the medium, resulting in the required final drug concentrations.
Following drug addition, the plates are incubated for an additional 48 h at 37 °C, 5% CO2, 95% air, and 100% relative humidity. For adherent cells, the assay is terminated by the addition of cold TCA. Cells are fixed in situ by the gentle addition of 50 μL of cold 50% (m/v) TCA (final concentration, 10% TCA) and incubated for 60 min at 4 °C. The supernatant is discarded, and the plates are washed five times with tap water and air dried. Sulforhodamine B (SRB) solution [100 μL at 0.4% (m/v) in 1% acetic acid] is added to each well, and plates are incubated for 10 min at room temperature. After staining, unbound dye is removed by washing five times with 1% acetic acid, and the plates are air dried. Bound stain is subsequently solubilized with 10 mM trizma® base [2-amino-2-(hydroxymethyl)-1,3-propandiol, tris base, trometamol], and the absorbance is read on an automated plate reader at a wavelength of λ = 515 nm. For suspension cells, the methodology is the same, except that the assay is terminated by fixing settled cells at the bottom of the wells by gently adding 50 μL of 80% TCA (final concentration, 16% TCA). Using the seven absorbance measurements [time zero, (Tz), control growth, (C), and test growth in the presence of the drug at the five concentration levels (Ti)], the percentage growth is calculated at each of the drug concentration levels. Percentage growth inhibition is calculated as:[(Ti − Tz)/(C − Tz)] × 100 for concentrations for which Ti ≥ Tz [(Ti − Tz)/Tz] × 100 for concentrations for which Ti < Tz
Three dose-response parameters are calculated for each experimental agent.

[5] = test system: SK-OV-3
[6] = test system: COLO 205
[7] = test system: ACHN
[8] = test system: LOX IMVI
[9] = test system: SK-MEL-5
[10] = test system: M14
[11] = test system: OVCAR-3
[12] = test system: HCC-2998
[13] = test system: CCRF-CEM
[14] = test system: KM-12
[15] = test system: OVCAR-8
[16] = test system: SF-295
[17] = test system: UO-31
[18] = test system: MCF7
[19] = test system: MDA-MB-435
[20] = test system: CAKI-1
[21] = test system: NCI/ADR-RES
[22] = test system: HT29
[23] = test system: A498
[24] = test system: RXF 393
[25] = test system: SN12C
[26] = test system: T-47D; settings: 48 h
[27] = test system: NCI-H226
[28] = test system: SNB-19
[29] = Homo sapiens, 48 h, read-out: LC50

## c1cc(CNC23CC4CC(CC(C4)C2)C3)cc(C[N+](Cc2cccc(CNC34CC5CC(CC(C5)C3)C4)c2)(Cc2cccc(CNC34CC5CC(CC(C5)C3)C4)c2)Cc2cccc(CNC34CC5CC(CC(C5)C3)C4)c2)c1 (stereo not shown) [Compound 1, tetrakis{3-[(tricyclo[3.3.1.1^3,7]decan-1-ammonio)methyl]benzyl}ammonium pentachloride]
[1]; Homo sapiens, IGROV-1, 48 h
  GI50: 0.886 µM
[1]; Homo sapiens, IGROV-1, 48 h, read-out: LC50
  CC50: 8.65 µM
[1]; IGROV1, ovarian cancer, mutant p53, 48 h
  TGI: 2.34 µM
[2]; 786-0, renal cancer, mutant p53, 48 h
  TGI: 1.85 µM
[2]; Homo sapiens, 786-0, 48 h
  GI50: 0.848 µM
[2]; Homo sapiens, 786-0, 48 h, read-out: LC50
  CC50: 4.05 µM
[3]; A549, non-small-cell lung cancer, wild-type p53, 48 h
  TGI: 8.70 µM
[3]; Homo sapiens, A549, 48 h
  GI50: 2.13 µM
[3]; Homo sapiens, A549, 48 h, read-out: LC50
  CC50: 24.2 µM
[4]; Homo sapiens, read-out: Mean of Inhibition Data (MID) GI50, 10^MID
  GI50: 1.29 µM
[4]; Homo sapiens, read-out: Mean of Inhibition Data (MID) LC50, 10^MID
  CC50: 16.6 µM
[4]; NCI 60 panel overall
  induction of cancer cell death (classification): tumoricidal
[4]; mean over all tested cell lines of the NCI 60 panel
  Mean of Inhibition Data (MID) TGI, 10^MID: 4.677 µM
[5]; Homo sapiens, SK-OV-3, 48 h
  GI50: 5.11 µM
[5]; Homo sapiens, SK-OV-3, 48 h, read-out: LC50
  CC50: 25.5 µM
[5]; SK-OV-3, ovarian cancer, no p53 protein expressed, 48 h
  TGI: 11.4 µM
[6]; COLO 205, colon cancer, mutant p53, 48 h
  TGI: 3.13 µM
[6]; Homo sapiens, COLO 205, 48 h
  GI50: 1.09 µM
[6]; Homo sapiens, COLO 205, 48 h, read-out: LC50
  CC50: 24.8 µM
[7]; Homo sapiens, 48 h
  GI50: 0.874 µM
[7]; [29]
  CC50: 5.55 µM
[7]; renal cancer, wild-type p53, 48 h
  TGI: 2.14 µM
[8]; Homo sapiens, 48 h
  GI50: 0.505 µM
[8]; [29]
  CC50: 3.18 µM
[8]; melanoma, wild-type p53, 48 h
  TGI: 1.27 µM
[9]; Homo sapiens, SK-MEL-5, 48 h
  GI50: 1.52 µM
[9]; Homo sapiens, SK-MEL-5, 48 h, read-out: LC50
  CC50: 18.6 µM
[9]; SK-MEL-5, melanoma, wild-type p53, 48 h
  TGI: 6.28 µM
[10]; Homo sapiens, M14, 48 h
  GI50: 0.803 µM
[10]; Homo sapiens, M14, 48 h, read-out: LC50
  CC50: 6.82 µM
[10]; M14, melanoma, mutant p53, 48 h
  TGI: 2.08 µM
[11]; Homo sapiens, OVCAR-3, 48 h
  GI50: 1.04 µM
[11]; Homo sapiens, OVCAR-3, 48 h, read-out: LC50
  CC50: 9.97 µM
[11]; OVCAR-3, ovarian cancer, mutant p53, 48 h
  TGI: 2.82 µM
[12]; HCC-2998, colon cancer, mutant p53, 48 h
  TGI: 5.31 µM
[12]; Homo sapiens, HCC 2998, 48 h
  GI50: 1.22 µM
[12]; Homo sapiens, HCC 2998, 48 h, read-out: LC50
  CC50: 22.6 µM
[13]; Homo sapiens, 48 h
  GI50: 1.46 µM
[13]; [29]
  CC50: > 50 µM
[13]; leukemia, mutant p53, 48 h
  TGI: > 50 µM
[14]; Homo sapiens, KM12, 48 h
  GI50: 1.65 µM
[14]; Homo sapiens, KM12, 48 h, read-out: LC50
  CC50: 20.6 µM
[14]; KM-12, colon cancer, mutant p53, 48 h
  TGI: 6.75 µM
[15]; Homo sapiens, OVCAR-8, 48 h
  GI50: 2.07 µM
[15]; Homo sapiens, OVCAR-8, 48 h, read-out: LC50
  CC50: 35.3 µM
[15]; OVCAR-8, ovarian cancer, mutant p53, 48 h
  TGI: 8.48 µM
[16]; Homo sapiens, SF-295, 48 h
  GI50: 3.05 µM
[16]; Homo sapiens, SF-295, 48 h, read-out: LC50
  CC50: 28.2 µM
[16]; SF-295, CNS cancer (brain tumor), mutant p53, 48 h
  TGI: 10.4 µM
[17]; Homo sapiens, UO-31, 48 h
  GI50: 0.817 µM
[17]; Homo sapiens, UO-31, 48 h, read-out: LC50
  CC50: 4.73 µM
[17]; UO-31, renal cancer, wild-type p53, 48 h
  TGI: 1.96 µM
[18]; Homo sapiens, MCF7, 48 h
  GI50: 1.07 µM
[18]; Homo sapiens, MCF7, 48 h, read-out: LC50
  CC50: 45.8 µM
[18]; MCF7, breast cancer, wild-type p53, 48 h
  TGI: 6.19 µM
[19]; Homo sapiens, MDA-MB-435, 48 h
  GI50: 0.825 µM
[19]; Homo sapiens, MDA-MB-435, 48 h, read-out: LC50
  CC50: 6.5 µM
[19]; MDA-MB-435, melanoma, mutant p53, 48 h
  TGI: 2.11 µM
[20]; CAKI-1, renal cancer, wild-type p53, 48 h
  TGI: 4.70 µM
[20]; Homo sapiens, CAKI-1, 48 h
  GI50: 1.28 µM
[20]; Homo sapiens, CAKI-1, 48 h, read-out: LC50
  CC50: 15.4 µM
[21]; Homo sapiens, 48 h
  GI50: 1.44 µM
[21]; [29]
  CC50: > 50 µM
[21]; ovarian cancer, mutant p53, 48 h
  TGI: 4.55 µM
[22]; HT29, colon cancer, mutant p53, 48 h
  TGI: 2.82 µM
[22]; Homo sapiens, HT-29, 48 h
  GI50: 0.857 µM
[22]; Homo sapiens, HT-29, 48 h, read-out: LC50
  CC50: 14.6 µM
[23]; A498, renal cancer, wild-type p53, 48 h
  TGI: 7.05 µM
[23]; Homo sapiens, A498, 48 h
  GI50: 1.19 µM
[23]; Homo sapiens, A498, 48 h, read-out: LC50
  CC50: 21.2 µM
[24]; Homo sapiens, RXF 393, 48 h
  GI50: 0.811 µM
[24]; Homo sapiens, RXF 393, 48 h, read-out: LC50
  CC50: 3.02 µM
[24]; RXF 393, renal cancer, mutant p53, 48 h
  TGI: 1.56 µM
[25]; Homo sapiens, 48 h
  GI50: 1.41 µM
[25]; [29]
  CC50: 15.8 µM
[25]; renal cancer, mutant p53, 48 h
  TGI: 4.43 µM
[26]; Homo sapiens, T47D
  GI50: 1.34 µM
[26]; Homo sapiens, T47D, read-out: LC50
  CC50: 38 µM
[26]; T-47D, breast cancer, mutant p53
  TGI: 6.72 µM
[27]; Homo sapiens, NCI-H226, 48 h
  GI50: 2.76 µM
[27]; Homo sapiens, NCI-H226, 48 h, read-out: LC50
  CC50: 31.2 µM
[27]; NCI-H226, non-small-cell lung cancer, p53 Lit. inconclusive, 48 h
  TGI: 10.8 µM
[28]; Homo sapiens, SNB-19, 48 h
  GI50: 1.92 µM
[28]; Homo sapiens, SNB-19, 48 h, read-out: LC50
  CC50: 19.9 µM
[28]; SNB-19, CNS cancer (brain tumor), mutant p53, 48 h
  TGI: 7.27 µM
